According to patent publication US20240150396A1 (The Texas A&M University System, priority 2021, published 2024):
Several values for one entry are separate records, joined by “and”; a condition that tells them apart may be missing. Equal entries are not always repeated. Where two headings read alike, the source gives them in different places. Residues, ends and D or L forms follow the SMILES beside them. *: point of attachment. AMC = Cc1cc(=O)oc2cc(N*)ccc12; Cbz = O=C(OCc1ccccc1)*

How the values were obtained:
[1] = system: T. cruzi (Ca-I/72) in C2C12 murine cardiomyoblasts; experiment: T. cruzi-infected murine cardiomyoblasts (C2C12); assay type: cell-based, Trypanosoma cruzi; settings: read-out: EC50 T. cruzi-infected cardiomyoblasts
Procedure: For the evaluation of the antitrypanocidal activity of cruzain inhibitors, we infected a C2C12 mouse cardiomyoblast cell line (ATCC CRL-1772) with T. cruzi strain Ca-I/72 (a gift from James Dvorak, National Institutes of Health) in […] plates. […] The plates were incubated at 37° C. for 48 h, and the wells were fixed with 2% paraformaldehyde in PBS and stained with 5 μg mL-1 4,6-diamidino-2-phenylindole. After at least 30 min of incubation at room temperature in the dark, the plates were read in an automated microscope, ImageXpress Micro XL (Molecular Devices), and the images were analyzed by custom-built software to quantify and assess viability of the parasites, as well as the host cells independently. The compilation of data was used to calculate the antiparasitic activity (EC50) and host cytotoxicity (CC50).
T. cruzi infection was evaluated in C2C12 murine cardiomyoblast cells. 384-microwell plates containing C2C12 murine cardiomyoblast cells were infected with 10^3 and 10^4 cells of T. cruzi (Ca-I/72), to which was added 3-fold serially-dilutions of inhibitor with maximal concentrations of 10 μM, followed by incubation at 37° C. for 2 days. The wells were fixed with 2% PFA in PBS, and stained by 5 μg/ml of DAPI. After >30 min of incubation in a dark environment, the plates were read on an ImageXpress MicroXL microscope (Molecular Devices). The images were analyzed to quantify parasites as well host cells.

human dermal fibroblasts = experiment: Human cell toxicity, resazurin viability; assay type: cell-based; settings: human dermal fibroblasts; read-out: Human Cell Cytotoxicity CC50
Procedure: Primary human dermal fibroblast (HDF) cells were used to evaluate human cell toxicity of cruzain inhibitors. HDF cells were plated in a 384-well plate at 2400 cells per well (62,000 cells mL^−1). Inhibitors in 100% DMSO were added in duplicate to final concentrations of 0.001-0.1 mM and 1% DMSO (v/v) with 1% DMSO as a control sample, and cells were cultured at 37° C. for 48 h, followed by the addition of resazurin. Cell viability was then assessed by reading of fluorescence (excitation/emission: 544 nm/590 nm) after an additional 24 h of incubation.

[2] = Host cell cytotoxicity in the T. cruzi infection model; assay type: cell-based, mouse; settings: mouse; host cardiomyoblasts; read-out: C2C12 Cytotoxicity CC50
Procedure: The plates were incubated at 37° C. for 48 h, and the wells were fixed with 2% paraformaldehyde in PBS and stained with 5 μg mL-1 4,6-diamidino-2-phenylindole. After at least 30 min of incubation at room temperature in the dark, the plates were read in an automated microscope, ImageXpress Micro XL (Molecular Devices), and the images were analyzed by custom-built software to quantify and assess viability of the parasites, as well as the host cells independently. The compilation of data was used to calculate the antiparasitic activity (EC50) and host cytotoxicity (CC50).
T. cruzi infection was evaluated in C2C12 murine cardiomyoblast cells. […] The wells were fixed with 2% PFA in PBS, and stained by 5 μg/ml of DAPI. After >30 min of incubation in a dark environment, the plates were read on an ImageXpress MicroXL microscope (Molecular Devices). The images were analyzed to quantify parasites as well host cells.

[3] = system: T. b. brucei procyclic forms; experiment: Growth of axenic cultures of T. b. brucei procyclic forms (PCFs); assay type: cell-based, Trypanosoma brucei brucei; settings: axenic culture, read-out: EC50 T. b. brucei PCF
[4] = system: T. b. brucei bloodstream forms; experiment: Growth of axenic cultures of T. b. brucei bloodstream forms (BSFs)
human cathepsin L = human cathepsin L (Homo sapiens (Human), UniProt P07711); experiment: Human cathepsin L inhibition, Z-FR-AMC assay; assay type: biochemical; settings: for Ki: pH 5.5, 25° C.
Procedure: (§1) Recombinant human cathepsins B and L were purchased from Millipore Sigma and used without further treatment. The solid proteins were dissolved into a solution of 50 mM sodium acetate (pH 5.5), 1 mM EDTA, 1 mM CHAPS, 10% (v/v) DMSO, and 5 mM DTT to final concentrations of […] in 20-mL aliquots, and stored at −80° C. until needed. These samples were then diluted into the same buffer to concentrations of −100 nM, and these dilutions were stored at 4° C. and used daily until depletion.
(§2) For assays of cathepsin L and B, inhibitors were evaluated in 0.25-mL reaction mixtures containing a buffer of sodium acetate (pH 5.5), 1 mM CHAPS, 1 mM Na2EDTA, and 5 mM DTT at 25° C. The fluorogenic substrate Cbz-Phe-Arg-7-amino-4-methyl-coumarin (Z-FR-AMC) was dissolved in 100% DMSO, as were all inhibitors, and aliquots of both substrates and inhibitors were added to reaction mixtures to final concentrations of DMSO of 10% (v/v). […] Formation of the fluorescent product AMC was monitored over 30-60-minute time courses for reaction mixtures in 96-well black microplates (Corning Costar®). Rates of peptidolysis of the dipeptide-AMC substrate(s) were measured on either a SpectraMax M5 (Molecular Devices) or a Synergy HTX (Biotek, Wisnooki, VT) microplate reader with λex=360 nm, λem=460 nm in ≥8-sec intervals. Control samples excluded substrate. The measured relative fluorescence units (RFUs) of generated AMC were converted to reaction rates of μM/s by use of a standard curve of known AMC concentrations obtained for both plate readers.

[5] = system: T. cruzi epimastigotes (strain Y); experiment: Growth of axenic cultures of T. cruzi epimastigotes
Procedure: Selected cruzain inhibitors in axenic cell cultures of Trypanosoma brucei brucei (procyclic trypomastigotes; ATCC PRA-381) and Trypanosoma cruzi (epimastigote forms; strain Y, ATCC 50832GFP) were tested. T. b. brucei is grown in SDM-79 medium, and T. cruzi is grown in ATCC medium (1029 LIT medium). Both media included fetal calf serum (10%) and penicillin/streptomycin (50 U/mL). […] T. brucei and T. cruzi (5 mL in flask cultures) at 26° C. were seeded at ˜3×10^6 cells, and diluted daily maintaining a mid-log growth phase for up to 100 hrs. Cell counts were scored using a Z2 Coulter Counter. After each cell dilution, fresh compound or an equal volume of DMSO (control samples), was supplemented into the cultures. […] Cruzain inhibitors where the highest concentration reflects the upper limit of solubilities of the inhibitors in 1% (v/v) DMSO solutions were evaluated. These inhibitors are likely to bind to proteins in fetal calf serum, and for these reasons, fresh inhibitors were added each time cells were re-fed.
Selected cruzain inhibitors were evaluated in axenic cell cultures of T. b. brucei and T. cruzi. Procyclic trypomastigotes of T. b. brucei (ATCC PRA-381) were grown in the SDM-79 medium at 26° C., and bloodstream forms (ATCC PRA-383) were grown at 37° C. in the HMI-9 medium at 5% C02. T. cruzi (epimastigote forms, strain Y, ATCC 50832GFP) was grown in the ATCC medium (1029 LIT medium). Both forms of T. b. brucei and T. cruzi were grown in media containing 10% fetal bovine serum (FBS) and penicillin/streptomycin (50 U mL^−1). […] Control samples contained equal amounts of DMSO. T. b. brucei and T. cruzi (5 mL in flask cultures) were seeded at ˜3×10^6 cells and diluted daily, maintaining a mid-log growth phase for up to 120 h. […] After each cell dilution, fresh compound or an equal volume of DMSO (control samples) was supplemented into the cultures, while maintaining a constant concentration of each inhibitor. Cell counts were scored using a Z2 Coulter Counter.

human cathepsin B = human cathepsin B (Homo sapiens (Human), UniProt P07858); experiment: Human cathepsin B inhibition, Z-FR-AMC assay; assay type: biochemical; settings: pH 5.5, 25° C.
Procedure: as §1, §2

SARS-CoV-2 3CL protease = SARS-CoV-2 3CL protease (Severe acute respiratory syndrome coronavirus 2 (2019-nCoV) (SARS-CoV-2), UniProt P0DTD1); experiment: biochemical; assay type: biochemical; settings: for Ki: read-out: Ki* 3CLpro
[6] = system: trypanosomes (T. b. brucei, T. cruzi); experiment: Anti-trypanosomal activity, culture not stated; assay type: cell-based; settings: culture (T. b. brucei PCF/BSF or T. cruzi-infected cardiomyoblasts) not stated
cruzain [7] = biological target: T1, cruzain (Trypanosoma cruzi, UniProt P25779); experiment: biochemical; settings: pH 7.5
Method in brief: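 Fluorogenic assay at 25 °C following AMC release (ex 360/em 460 nm), with typically 0.2 nM cruzain and 10% DMSO, at pH 7.5 or 5.5 buffer with 5 mM DTT.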

cruzain [8] = biological target: T1, cruzain; experiment: Kinetic parameters of peptide substrates for cruzain; assay type: biochemical; settings: relative to Cbz-Phe-Arg-AMC
Procedure: All enzyme assays were performed at 25° C. Initial rates of the peptidolytic reaction catalyzed by cruzain were measured by monitoring the fluorescence generated by cleavage of the dipeptide-AMC bond. Assays were conducted in 96-well plates (Greiner; flat-bottom, clear black plates) in a total volume of 250 μL, containing either 50 mM MES (pH 7.5), 50 mM TAPSO, 100 mM DEA, 1 mM CHAPS, 1 mM Na2EDTA, 5 mM DTT, and 10% DMSO (v/v) or 50 mM sodium acetate (pH 5.5), 50 mM MES, 100 mM TEA, 1 mM CHAPS, 1 mM Na2EDTA, 5 mM DTT, and 10% DMSO (v/v). Substrates were dissolved in 100% DMSO and were then diluted 10-fold such that when added to reaction mixtures, final DMSO concentration was 10% (v/v). Reactions were initiated with the addition of 1-10 μL of cruzain (final concentrations: 0.1-3.0 nM (preincubation studies)). Fluorescence was measured on either a SpectraMax M5 (Molecular Devices) or a Synergy HTX (BioTek, Winooski, VT) microplate reader (λex=360 nm, λem=460 nm). Initial rates were determined from continuous kinetic time courses and calculated from the earliest time points, typically at less than 10 min.
Initial velocity data for cruzain-catalyzed reactions of fluorogenic peptide substrates were determined by fitting to eq 1 using GraphPad Prism 6.0 or SigmaPlot 12.0. For eq 1, kcat is the turnover number, [E]t is the concentration of active sites of cruzain, and Ka is the Michaelis constant for the substrate A. Cruzain concentrations were determined by spectrophotometric analysis of purified sample solutions as described.^44

cruzain [9] = biological target: T1, cruzain; settings: 2% DMSO, from Ref. 40; cited from earlier work
[10] = system: SARS-CoV-2 in Vero E6 cells; experiment: Anti-CoV-2 activity in Vero E6 cells; assay type: cell-based
[11] = Solubility of cruzain inhibitors in 10% DMSO, light scattering; assay type: physicochemical
Procedure: Synthetic PVHIs such as 5-16 and 22-24 at final concentrations of 1-200 μM were added to 0.25 mL solutions of 10% DMSO (v/v) in clear 96-well Greiner plates, and absorbance at 620 nm was measured using a BioTek M2 Synergy plate reader at t=0 and 120 min to evaluate increased light scattering and precipitated inhibitor.

[12] = read-out: EC50 T. b. brucei BSF, axenic culture
[13] = obtained >10 minutes following initiation of reaction by addition of enzyme, read-out: Ki* Cruzain
[14] = apparent tight-binding inhibition constant, 25° C., read-out: Ki*

T1 sequence (P25779 123-467 limits assumed): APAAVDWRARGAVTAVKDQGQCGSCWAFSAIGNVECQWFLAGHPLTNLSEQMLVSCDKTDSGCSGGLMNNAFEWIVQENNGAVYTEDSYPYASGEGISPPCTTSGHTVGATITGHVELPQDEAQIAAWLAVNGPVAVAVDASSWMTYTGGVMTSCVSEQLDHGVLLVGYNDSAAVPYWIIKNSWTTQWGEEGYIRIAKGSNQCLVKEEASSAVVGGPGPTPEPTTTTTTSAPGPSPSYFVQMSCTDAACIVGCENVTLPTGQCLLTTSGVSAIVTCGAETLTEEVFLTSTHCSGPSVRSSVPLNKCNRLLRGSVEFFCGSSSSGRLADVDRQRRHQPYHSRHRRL
human cathepsin L, sequence (P07711 114-333): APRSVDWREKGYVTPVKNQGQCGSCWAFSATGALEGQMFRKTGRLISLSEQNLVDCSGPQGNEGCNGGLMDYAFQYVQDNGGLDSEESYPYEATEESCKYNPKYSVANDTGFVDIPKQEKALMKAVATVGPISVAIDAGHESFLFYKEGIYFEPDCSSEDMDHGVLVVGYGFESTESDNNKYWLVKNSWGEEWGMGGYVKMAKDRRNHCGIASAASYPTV

Compound | EC50 ([1]; C2C12 murine cardiomyoblasts) | EC50 [3] | EC50 [4, 12] | Ki (human cathepsin L; read-out: Ki* hCatL) | Ki (SARS-CoV-2 3CL protease; pH 7.5) | Ki (human cathepsin B; read-out: Ki* hCatB) | EC50 [6] | Ki (cruzain [7]; [13]) | EC50 [10] | also measured
O=C(N[C@@H](Cc1ccccc1)C(=O)N[C@H](/C=C/c1ccccn1)CCc1ccccc1)OCc1ccccc1 [Compound 13, Benzyl ((S)-1-Oxo-3-phenyl-1-(((S,E)-5-phenyl-1-(pyridin-2-yl)-pent-1-en-3-yl)amino)propan-2-yl)carbamate] | 5.9 ± 0.3 µM | > 10 µM | – | – | – | – | – | – | – | EC50 ([1]; Trypanosoma cruzi, C2C12, C2C12 murine cardiomyoblasts): 5 to 10 µM; CC50 (human dermal fibroblasts): > 100 µM; CC50 at 48 h [2]: > 10 µM; EC50 ([3]; Trypanosoma brucei): 5.5 µM; EC50 ([4]; Trypanosoma brucei, read-out: EC50 T. b. brucei BSF, axenic culture): 4 ± 2 µM; Ki (human cathepsin L; 10% DMSO, read-out: Ki* Human Cathepsin L): 1.9 ± 0.2 µM; EC50 ([5]; Trypanosoma cruzi, read-out: T. cruzi axenic culture EC50, epimastigotes): > 20 µM; T. cruzi axenic culture EC50 ([5]; epimastigotes): poorly effective; Ki (human cathepsin B; 10% DMSO, read-out: Ki* Human Cathepsin B): 6.5 ± 0.9 µM
O=C(NC(Cc1ccccc1)C(=O)NC1Cc2cc(Cl)ccc2OC1O)OCc1ccccc1 (centres unmarked) [Compound 33] | – | 10 µM | 6 µM and 5.8 µM | 0.027 ± 0.0007 µM | > 10 µM | 1.4 ± 0.1 µM | 6 to 10 µM | 0.074 ± 0.01 µM | – | –
Cc1cc(=O)oc2cc(NC(=O)C(C)NC(=O)C(Cc3ccccc3)NC(=O)OCc3ccccc3)ccc12 (stereo not drawn) [Compound S12, Cbz-Phe-Ala-AMC] | – | – | – | – | – | – | – | – | – | kcat rel (cruzain [8]): 0.09; Km (cruzain [9]): 38 ± 2 µM; kcat (cruzain [9]): 0.89 ± 0.06 s⁻¹; kcat/Km (cruzain [9]): 23000 ± 3000 M⁻¹ s⁻¹
Cc1cc(=O)oc2cc(NC(=O)[C@H](CCCN=C(N)N)NC(=O)[C@H](CCCN=C(N)N)NC(=O)OCc3ccccc3)ccc12 [Compound S6, Cbz-Arg-Arg-AMC] (Cbz-Arg-Arg-{AMC}) | – | – | – | – | – | – | – | – | – | kcat rel (cruzain [8]): 0.75; Km (cruzain [9]): 3.7 ± 0.4 µM; kcat (cruzain [9]): 7.2 ± 0.1 s⁻¹; kcat/Km (cruzain [9]): 1.9e+06 ± 200000 M⁻¹ s⁻¹
COc1ccc2c(c1)CC(NC(=O)C(Cc1ccccc1)NC(=O)OCc1ccccc1)C(O)O2 (centres unmarked) [Compound 31] | – | 11 µM | 3 µM and 2.6 µM | 0.038 ± 0.002 µM | – | 5.5 ± 0.4 µM | 3 to 11 µM | 0.35 ± 0.03 µM | 2.5 µM and 2.5 to 7.5 µM | Ki* 3CLpro (SARS-CoV-2 3CL protease): not an inhibitor of 3CL protease; Ki (SARS-CoV-2 3CL protease): > 10 µM
COC(=O)c1ccc2c(c1)CC(NC(=O)C(Cc1ccccc1)NC(=O)OCc1ccccc1)C(O)O2 (centres unmarked) [Compound 35] | 3.5 ± 0.3 µM | 6.7 µM | – | 0.0108 ± 0.0008 µM | > 10 µM | 0.67 ± 0.03 µM | 3.5 to 6.7 µM | 0.018 ± 0.0005 µM | 2.5 µM | inhibits cathepsin L more potently than cruzain (human cathepsin L): 6 fold; EC50 ([5]; read-out: T. cruzi axenic culture EC50, epimastigotes): 2 to 20 µM
O=C(N[C@@H](Cc1ccccc1)C(=O)N[C@H](/C=C/c1ccccc1)Cc1ccccc1)OCc1ccccc1 [Compound 5, Benzyl ((S)-1-(((S,E)-1,4-Diphenylbut-3-en-2-yl)amino)-1-oxo-3-phenylpropan-2-yl)carbamate] | – | – | – | – | – | – | – | – | – | aqueous solubility [11]: poor aqueous solubility; Ki (cruzain [7]; apparent initial inhibition constant, 25° C., read-out: Ki): 1.8 ± 0.1 µM; Ki (cruzain [7]; [14]): 0.87 µM
O=C(N[C@@H](Cc1ccccc1)C(=O)N[C@H](/C=C/c1ccc([N+](=O)[O-])cc1)Cc1ccccc1)OCc1ccccc1 [Compound 6, Benzyl ((S)-1-(((S,E)-4-(4-Nitrophenyl)-1-phenylbut-3-en-2-yl)-amino)-1-oxo-3-phenylpropan-2-yl)carbamate] | – | – | – | – | – | – | – | – | – | aqueous solubility [11]: poor aqueous solubility; Ki (cruzain [7]; [14]): 0.37 ± 0.02 µM
O=C(NC(Cc1ccccc1)C(=O)NC1Cc2cc(F)ccc2OC1O)OCc1ccccc1 (centres unmarked) [Compound 34] | 3.5 µM and 3 to 5.7 µM | 11.1 µM | 2.7 µM | 0.023 ± 0.001 µM | > 10 µM | 2.3 ± 0.2 µM | 3 to 11 µM | 0.048 ± 0.002 µM | 4 µM and 2.5 to 7.5 µM | –
